Laboratory results from ChEMBL document CHEMBL1135161, “Antimalarial activities of ring-substituted bioimidazoles” (Bioorg Med Chem Lett, 2002).
Activity calls are given as the source filed them. No cut-off for these calls is given here.

Columns and labels:
Plasmodium falciparum [1] = test: In vitro antimalarial activity against chloroquine-sensitive Plasmodium falciparum; format: functional, organism-based
Mus musculus [2] = test: In vivo antimalarial activity of compound against Plasmodium berghei infected in mice (Mus musculus) model. Compound active at given dose.; format: functional
Plasmodium falciparum [3] = test: In vitro antimalarial activity against chloroquine-resistant Plasmodium falciparum; format: functional, organism-based
Mus musculus [4] = test: In vivo antimalarial activity of compound against Plasmodium berghei infected in mice (Mus musculus) model; Inactive; format: functional, organism-based

| SMILES | IC50 (Plasmodium falciparum [1]) | further results |
| --- | --- | --- |
| Cc1nc(CC(N)C(=O)O)c[nH]1 (stereo not given) | > 500 µM | – |
| Cn1cc(CC(N)C(=O)O)nc1C(C)(C)C (stereo not given) | > 500 µM | – |
| CC(C)c1nc(CCN)c[nH]1 | 4.7 µM | Dose (Mus musculus [2]): 100 mg/kg; IC50 (Plasmodium falciparum [3]): 4.8 µM |
| CC(C)c1ncc(CC(N)C(=O)O)n1Cc1ccccc1 (stereo not given) | 355 µM | – |
| CC(C)(C)c1ncc(CCN)n1Cc1ccccc1 | 233 µM | – |
| NCCc1cnc(C2CCCCC2)n1Cc1ccccc1 | > 500 µM | – |
| NC(Cc1c[nH]c(C2CCCCC2)n1)C(=O)O (stereo not given) | 350 µM | – |
| NC(Cc1c[nH]c(C2CCC2)n1)C(=O)O (stereo not given) | 255 µM | – |
| CC(C)n1cnc(CCN)c1 | 9.6 µM | Dose (Mus musculus [2]): 100 mg/kg; IC50 (Plasmodium falciparum [3]): 10.4 µM |
| CC(C)c1nc(CC(N)C(=O)O)cn1Cc1ccccc1 (stereo not given) | 89 µM | DOSE (Mus musculus [4]): inactive; IC50 (Plasmodium falciparum [3]): 245 µM |
| NC(Cc1cnc(C23CC4CC(CC(C4)C2)C3)n1Cc1ccccc1)C(=O)O (stereo not given) | > 500 µM | – |
| CC(C)(C)c1nc(CCN)c[nH]1 | 15.5 µM | DOSE (Mus musculus [4]): inactive; IC50 (Plasmodium falciparum [3]): 30.3 µM |
| CCn1cnc(CC(N)C(=O)O)c1 (stereo not given) | > 500 µM | – |
| NC(Cc1cnc(C2CCCCC2)n1Cc1ccccc1)C(=O)O (stereo not given) | > 500 µM | – |
| NC(Cc1c[nH]c(C2CCCC2)n1)C(=O)O (stereo not given) | 276 µM | – |
| NC(Cc1cn(Cc2ccccc2)cn1)C(=O)O (stereo not given) | 360 µM | – |
| CC(C)(C)c1ncc(CC(N)C(=O)O)n1Cc1ccccc1 (stereo not given) | 399 µM | – |
| CC(C)c1nc(CC(N)C(=O)O)c[nH]1 (stereo not given) | 6.3 µM | Dose (Mus musculus [2]): 100 mg/kg; IC50 (Plasmodium falciparum [3]): 6.5 µM |
| CC(C)(C)c1nc(CC(N)C(=O)O)c[nH]1 (stereo not given) | 25.8 µM | DOSE (Mus musculus [4]): inactive; IC50 (Plasmodium falciparum [3]): 3.85 µM |
| NCCc1c[nH]c(C2CCCCC2)n1 | > 500 µM | – |
| Cc1ncc(CCN)[nH]1 [2-METHYLHISTAMINE] | > 500 µM | – |

| SMILES | IC50 (Plasmodium falciparum [1]) | further results |
| --- | --- | --- |
| NCCc1cnc(C23CC4CC(CC(C4)C2)C3)n1Cc1ccccc1 | > 500 µM | – |
| Cn1cc(CCN)nc1C1CCCCC1 | > 500 µM | – |
| CCc1nc(CCN)c[nH]1 | > 500 µM | – |
| CCn1cnc(CCN)c1 | > 500 µM | – |
| CC(C)(C)c1nc(CC(N)C(=O)O)cn1Cc1ccccc1 (stereo not given) | 157 µM | – |
| C=CCn1cnc(CCN)c1 | 176 µM | – |
| NCCc1cn(Cc2ccccc2)cn1 | 20.7 µM | DOSE (Mus musculus [4]): inactive; IC50 (Plasmodium falciparum [3]): 22.5 µM |
| Cn1cc(CCN)nc1C(C)(C)C | 459 µM | – |
| NC(Cc1c[nH]c(C23CC4CC(CC(C4)C2)C3)n1)C(=O)O (stereo not given) | 450 µM | – |
| Cn1cnc(CC(N)C(=O)O)c1 (stereo not given) | > 500 µM | – |
| Cn1c(CC(N)C(=O)O)cnc1C(C)(C)C (stereo not given) | > 500 µM | – |
| CC(C)n1cnc(CC(N)C(=O)O)c1 (stereo not given) | 120 µM | – |
| NCCc1c[nH]c(C2CCC2)n1 | 367 µM | – |
| CCc1nc(CC(N)C(=O)O)c[nH]1 (stereo not given) | > 500 µM | – |
| Cn1cnc(CCN)c1 [N-METHYLHISTAMINE] | > 500 µM | – |
| CC(C)c1nc(CCN)cn1C | 387 µM | – |
| Cn1cc(CC(N)C(=O)O)nc1C1CCCCC1 (stereo not given) | > 500 µM | – |
| NCCc1c[nH]c(C2CCCC2)n1 | 489 µM | – |
| CC(C)c1ncc(CCN)n1Cc1ccccc1 | 188 µM | – |
| CC(C)c1nc(CC(N)C(=O)O)cn1C (stereo not given) | > 500 µM | – |
